{"source": "ChEMBL document CHEMBL4130585", "about": "“Pimentelamines A-C, Indole Alkaloids Isolated from the Leaves of the Australian Tree Flindersia pimenteliana” (J Nat Prod, 2017)", "key": {"Plasmodium falciparum [1]": {"tested_on": "Plasmodium falciparum", "assay": "Growth inhibition of chloroquine-resistant Plasmodium falciparum Dd2 at 40 uM after 72 hrs by DAPI staining based confocal microplate imaging method relative to control", "type": "functional"}, "Plasmodium falciparum [2]": {"tested_on": "Plasmodium falciparum", "assay": "Antimalarial activity against chloroquine-sensitive Plasmodium falciparum 3D7 after 72 hrs by DAPI staining based confocal microplate imaging method", "type": "functional, organism-based", "conditions": "3D7, 72 h"}, "HEK293 [3]": {"tested_on": "HEK293", "assay": "Cytotoxicity against HEK293 cells after 72 hrs by resazurin dye based assay", "type": "cell-based", "conditions": "Homo sapiens, HEK293, 72 h"}, "[4]": {"assay": "Selectivity index, ratio of IC50 for HEK293 cells to IC50 for chloroquine-sensitive Plasmodium falciparum 3D7", "type": "toxicity", "conditions": "human, read-out: Ratio IC50"}, "Plasmodium falciparum [5]": {"tested_on": "Plasmodium falciparum", "assay": "Antimalarial activity against chloroquine-sensitive Plasmodium falciparum 3D7 at 40 uM after 72 hrs by DAPI staining based confocal microplate imaging method", "type": "functional, organism-based"}, "HEK293 [6]": {"tested_on": "HEK293", "assay": "Cytotoxicity against HEK293 cells at 40 uM after 72 hrs by resazurin dye based assay", "type": "cell-based", "conditions": "human, hek293, 72 h"}, "Plasmodium falciparum [7]": {"tested_on": "Plasmodium falciparum", "assay": "Antimalarial activity against chloroquine-resistant Plasmodium falciparum Dd2 after 72 hrs by DAPI staining based confocal microplate imaging method", "type": "functional, organism-based", "conditions": "Dd2, 72 h"}, "Plasmodium falciparum [8]": {"tested_on": "Plasmodium falciparum", "assay": "Antimalarial activity against chloroquine-sensitive Plasmodium falciparum 3D7 at 5 uM after 72 hrs by DAPI staining based confocal microplate imaging method relative to control", "type": "functional"}}, "note": "Calls of active or inactive are those of the source. The calls are words filed in the database; no cut-off is given here.", "data": [{"smiles": "CCc1nc(N)nc(N)c1-c1ccc(Cl)cc1", "note": "[PYRIMETHAMINE]", "values": [{"measurement": "inhibition of growth at 40 µM", "setting": "Plasmodium falciparum [1]; Dd2, 72 h, read-out: GI", "result": 59, "unit": "%"}, {"measurement": "IC50", "setting": "Plasmodium falciparum [2]", "result": 0.006, "unit": "µM"}, {"measurement": "IC50", "setting": "HEK293 [3]", "result": 0.69, "unit": "µM"}, {"measurement": "selectivity ratio", "setting": "[4]", "result": 120}]}, {"smiles": "C[C@H]1[C@H](OC(=O)CCC(=O)O)O[C@@H]2O[C@@]3(C)CC[C@H]4[C@H](C)CC[C@@H]1[C@@]24OO3", "note": "[ARTESUNATE]", "values": [{"measurement": "IC50", "setting": "Plasmodium falciparum [2]", "result": 0.001, "unit": "µM"}, {"measurement": "IC50", "setting": "HEK293 [3]", "result": 7, "unit": "µM"}, {"measurement": "selectivity ratio", "setting": "[4]", "result": 7990}]}, {"smiles": "CN(C)CCc1c(C[C@@H]2O[C@]34OC[C@H](O)[C@H]3OC(=O)[C@]4(O)C2(C)C)[nH]c2ccccc12.O=C(O)C(F)(F)F", "values": [{"measurement": "growth inhibition (GI)", "setting": "Plasmodium falciparum [1]", "result": "inactive"}, {"measurement": "Activity", "setting": "Plasmodium falciparum [5]", "result": "inactive"}, {"measurement": "Activity", "setting": "HEK293 [6]", "result": "Non-Toxic"}]}, {"smiles": "CC1(C)C=Cc2c(cc3oc(-c4ccc(O)cc4)cc(=O)c3c2O)O1", "values": [{"measurement": "IC50", "setting": "Plasmodium falciparum [7]", "result": 2.3, "unit": "µM"}, {"measurement": "IC50", "setting": "Plasmodium falciparum [2]", "result": 3.4, "unit": "µM"}, {"measurement": "Activity", "setting": "HEK293 [6]", "result": "Non-Toxic"}, {"measurement": "selectivity ratio", "setting": "[4]", "result": "> 6"}]}, {"smiles": "C[C@@H]1O[C@@H](Oc2c(-c3ccc(O)c(O)c3)oc3cc(O)cc(O)c3c2=O)[C@H](O)[C@H](O)[C@H]1O", "note": "[QUERCITRIN]", "values": [{"measurement": "growth inhibition (GI)", "setting": "Plasmodium falciparum [1]", "result": "inactive"}, {"measurement": "Activity", "setting": "Plasmodium falciparum [5]", "result": "inactive"}, {"measurement": "Activity", "setting": "HEK293 [6]", "result": "Non-Toxic"}]}, {"smiles": "CNCCc1c(C[C@@H]2O[C@]34OC[C@H](O)[C@H]3OC(=O)[C@]4(O)C2(C)C)[nH]c2ccccc12.O=C(O)C(F)(F)F", "values": [{"measurement": "growth inhibition (GI)", "setting": "Plasmodium falciparum [1]", "result": "inactive"}, {"measurement": "Activity", "setting": "Plasmodium falciparum [5]", "result": "inactive"}, {"measurement": "Activity", "setting": "HEK293 [6]", "result": "Non-Toxic"}]}, {"smiles": "CC1=C[C@@H]2c3c(CCN(C)C)c4ccccc4n3[C@@H](c3[nH]c4ccccc4c3CCN(C)C)[C@@H]2C(C)(C)C1", "values": [{"measurement": "IC50", "setting": "Plasmodium falciparum [7]", "result": 0.19, "unit": "µM"}, {"measurement": "IC50", "setting": "Plasmodium falciparum [2]", "result": 0.67, "unit": "µM"}, {"measurement": "IC50", "setting": "HEK293 [3]", "result": 5.4, "unit": "µM"}, {"measurement": "selectivity ratio", "setting": "[4]", "result": 8}]}, {"smiles": "CNCCc1c([C@@H]2[C@@H]3[C@H](C=C(C)CC3(C)C)[C@]34Nc5ccccc5[C@]23CCN4C)[nH]c2ccccc12", "values": [{"measurement": "IC50", "setting": "Plasmodium falciparum [7]", "result": 0.22, "unit": "µM"}, {"measurement": "IC50", "setting": "Plasmodium falciparum [2]", "result": 0.31, "unit": "µM"}, {"measurement": "IC50", "setting": "HEK293 [3]", "result": 5, "unit": "µM"}, {"measurement": "selectivity ratio", "setting": "[4]", "result": 16}]}, {"smiles": "CC1=C[C@H]2[C@@H]([C@@H](c3[nH]c4ccccc4c3CCN(C)C)[C@]34CCN(C)[C@]23Nc2ccccc24)C(C)(C)C1", "values": [{"measurement": "IC50", "setting": "Plasmodium falciparum [7]", "result": 0.34, "unit": "µM"}, {"measurement": "IC50", "setting": "Plasmodium falciparum [2]", "result": 0.51, "unit": "µM"}, {"measurement": "IC50", "setting": "HEK293 [3]", "result": 7.1, "unit": "µM"}, {"measurement": "selectivity ratio", "setting": "[4]", "result": 14}]}, {"smiles": "COc1ccc2nc3cc(Cl)ccc3c(Nc3cc(CN4CCCC4)c(O)c(CN4CCCC4)c3)c2n1", "note": "[PYRONARIDINE]", "values": [{"measurement": "IC50", "setting": "Plasmodium falciparum [7]", "result": 0.14, "unit": "µM"}, {"measurement": "IC50", "setting": "HEK293 [3]", "result": 2.9, "unit": "µM"}, {"measurement": "selectivity ratio", "setting": "[4]", "result": 239}]}, {"smiles": "CC1(C)[C@H](Cc2[nH]c3ccccc3c2CC[N+](C)(C)O)O[C@]23OC[C@H](O)[C@H]2OC(=O)[C@]13O.O=C([O-])C(F)(F)F", "values": [{"measurement": "IC50", "setting": "Plasmodium falciparum [7]", "result": 2.7, "unit": "µM"}, {"measurement": "IC50", "setting": "Plasmodium falciparum [2]", "result": 3.6, "unit": "µM"}, {"measurement": "Activity", "setting": "HEK293 [6]", "result": "Non-Toxic"}, {"measurement": "selectivity ratio", "setting": "[4]", "result": "> 6"}]}, {"smiles": "COc1ccc(C[C@H](N)C(=O)N[C@H]2[C@@H](O)[C@H](n3cnc4c(N(C)C)ncnc43)O[C@@H]2CO)cc1", "note": "[PUROMYCIN]", "values": [{"measurement": "IC50", "setting": "Plasmodium falciparum [7]", "result": 0.032, "unit": "µM"}, {"measurement": "IC50", "setting": "HEK293 [3]", "result": "0.45 to 0.69", "unit": "µM"}, {"measurement": "Activity", "setting": "Plasmodium falciparum [8]", "result": 100, "unit": "%"}, {"measurement": "selectivity ratio", "setting": "[4]", "result": 8}]}, {"smiles": "CCN(CC)CCCC(C)Nc1ccnc2cc(Cl)ccc12", "note": "(stereo not drawn) [CHLOROQUINE]", "values": [{"measurement": "IC50", "setting": "HEK293 [3]", "result": 0.49, "unit": "µM"}]}, {"smiles": "C[C@H]1[C@@H](O)O[C@@H]2O[C@@]3(C)CC[C@H]4[C@H](C)CC[C@@H]1[C@@]24OO3", "note": "[ARTENIMOL]", "values": [{"measurement": "IC50", "setting": "Plasmodium falciparum [7]", "result": 0.0004, "unit": "µM"}, {"measurement": "IC50", "setting": "Plasmodium falciparum [2]", "result": 0.0003, "unit": "µM"}, {"measurement": "IC50", "setting": "HEK293 [3]", "result": 9.9, "unit": "µM"}, {"measurement": "selectivity ratio", "setting": "[4]", "result": 38100}]}]}
